Measurements published in patent publication US9901592B2 (priority 2008, dated 2018).
Values after ≈ are worked out from the molar mass of the structure shown. Like-named read-outs stand apart in the source and are kept apart here.

Experiments:
[1] = system: S. pneumoniae; experiment: microbe, parasite or virus in culture; assay type: cell-based; conditions: for MIC: Streptococcus pneumoniae
[2] = system: M. fermentans; assay type: cell-based; conditions: M. fermentans (15 isolates)
[3] = system: S. pneumoniae; experiment: microbe, parasite or virus in culture; assay type: cell-based
[4] = system: M. hominis; assay type: cell-based; conditions: M. hominis (13 isolates)
[5] = system: S. pneumoniae; assay type: cell-based
[6] = system: S. pyogenes; assay type: cell-based
[7] = system: pneumococci; experiment: microbe, parasite or virus in culture; assay type: cell-based, S. pneumoniae; conditions: Streptococcus pneumoniae
[8] = system: streptococci; experiment: organism not typed; assay type: cell-based
[9] = system: M. catarrhalis; experiment: microbe, parasite or virus in culture; assay type: cell-based; conditions: Moraxella catarrhalis

`CCC[C@@H]1C[C@@H](C(=O)N[C@@H]([C@H]2O[C@H](SC)[C@H](O)[C@@H](O)[C@H]2O)[C@H](C)Cl)N(C)C1` [CLN, clindamycin] was tested, and the “strains with resistant clones / strains tested” value ([1]; S. pneumoniae) was 2/5, the MIC ([1]; read-out: Initial MIC, strain 24 Macrolide-R [erm(B)], parent) was greater than 64 µg/mL and the MIC ([1]; read-out: Initial MIC, strain 1076 Macrolide-R [erm(B)&mef(A)], parent) was 64 µg/mL (≈ 151 µM). It also gave an MIC ([1]; read-out: Initial MIC, strain 1077 Macrolide-S, parent) of 0.016 µg/mL (≈ 0.0376 µM), an MIC ([1]; read-out: Initial MIC, strain 1635 Macrolide-R [erm(A)], parent) of 0.06 µg/mL (≈ 0.141 µM) and an MIC ([1]; read-out: Initial MIC, strain 2686 Macrolide-R [L4 mutation], parent) of 0.03 µg/mL (≈ 0.0706 µM). It also gave an MIC ([1]; read-out: Initial MIC, strain 3009 Macrolide-R [23SrRNA mutation], parent) of 1 µg/mL (≈ 2.35 µM), an MIC ([1]; read-out: Initial MIC, strain 3665 Macrolide-R [mef(A)], parent) of 0.016 µg/mL (≈ 0.0376 µM) and an MIC ([1]; read-out: Initial MIC, strain 7127 Macrolide-S [S20N in L4, A105V in L22], parent) of 0.03 µg/mL (≈ 0.0706 µM). The MIC ([1]; read-out: MIC of parents of resistant clones, S. pneumoniae (CEM-101: 7 strains)) was 0.03 to 0.06 µg/mL, the MIC ([1]; read-out: Parental MICs, S. pneumoniae, 8 strains with varying resistotypes) was 0.016 to 1 µg/mL (≈ 0.0376 to 2.35 µM) and the MIC ([1]; read-out: Selected Resistance MIC, strain 1077 Macrolide-S, after serial passages in the drug) was 4 µg/mL (≈ 9.41 µM). The MIC ([1]; read-out: Selected Resistance MIC, strain 1635 Macrolide-R [erm(A)], after serial passages in the drug) was greater than 64 µg/mL, the MIC ([1]; read-out: Selected Resistance MIC, strain 2686 Macrolide-R [L4 mutation], after serial passages in the drug) was 0.125 µg/mL (≈ 0.294 µM) and the MIC ([1]; read-out: Selected Resistance MIC, strain 3009 Macrolide-R [23SrRNA mutation], after serial passages in the drug) was 2 µg/mL (≈ 4.71 µM). The MIC ([1]; read-out: Selected Resistance MIC, strain 3665 Macrolide-R [mef(A)], after serial passages in the drug) was 0.03 µg/mL (≈ 0.0706 µM), the “Retest MIC after 10 Antibiotic-free Subcultures” value ([1]; strain 24 Macrolide-R [erm(B)], clone selected with CEM-101) was greater than 64 µg/mL and the “Retest MIC after 10 Antibiotic-free Subcultures” value ([1]; strain 24 Macrolide-R [erm(B)], clone selected with TEL) was greater than 64 µg/mL. The “Retest MIC after 10 Antibiotic-free Subcultures” value ([1]; strain 1076 Macrolide-R [erm(B)&mef(A)], clone selected with CEM-101) was greater than 64 µg/mL, the “Retest MIC after 10 Antibiotic-free Subcultures” value ([1]; strain 1076 Macrolide-R [erm(B)&mef(A)], clone selected with TEL) was greater than 64 µg/mL and the “Retest MIC after 10 Antibiotic-free Subcultures” value ([1]; strain 1077 Macrolide-S, clone selected with AZI) was 4 µg/mL. For the same compound, the “Retest MIC after 10 Antibiotic-free Subcultures” value ([1]; strain 1077 Macrolide-S, clone selected with CEM-101) was 0.03 µg/mL, the “Retest MIC after 10 Antibiotic-free Subcultures” value ([1]; strain 1077 Macrolide-S, clone selected with CLN) was 8 µg/mL and the “Retest MIC after 10 Antibiotic-free Subcultures” value ([1]; strain 1077 Macrolide-S, clone selected with TEL) was 8 µg/mL. For the same compound, the “Retest MIC after 10 Antibiotic-free Subcultures” value ([1]; strain 1635 Macrolide-R [erm(A)], clone selected with AZI) was 0.03 µg/mL, the “Retest MIC after 10 Antibiotic-free Subcultures” value ([1]; strain 1635 Macrolide-R [erm(A)], clone selected with CEM-101) was 0.03 µg/mL and the “Retest MIC after 10 Antibiotic-free Subcultures” value ([1]; strain 1635 Macrolide-R [erm(A)], clone selected with CLN) was greater than 64 µg/mL. For the same compound, the “Retest MIC after 10 Antibiotic-free Subcultures” value ([1]; strain 1635 Macrolide-R [erm(A)], clone selected with CLR) was 0.25 µg/mL, the “Retest MIC after 10 Antibiotic-free Subcultures” value ([1]; strain 2686 Macrolide-R [L4 mutation], clone selected with CEM-101) was 0.03 µg/mL and the “Retest MIC after 10 Antibiotic-free Subcultures” value ([1]; strain 2686 Macrolide-R [L4 mutation], clone selected with CLR) was 0.03 µg/mL. For the same compound, the “Retest MIC after 10 Antibiotic-free Subcultures” value ([1]; strain 2686 Macrolide-R [L4 mutation], clone selected with TEL) was 0.03 µg/mL, the “Retest MIC after 10 Antibiotic-free Subcultures” value ([1]; strain 3009 Macrolide-R [23SrRNA mutation], clone selected with CEM-101) was 1 µg/mL and the “Retest MIC after 10 Antibiotic-free Subcultures” value ([1]; strain 3009 Macrolide-R [23SrRNA mutation], clone selected with CLR) was 1 µg/mL. For the same compound, the “Retest MIC after 10 Antibiotic-free Subcultures” value ([1]; strain 3665 Macrolide-R [mef(A)], clone selected with CEM-101) was 0.03 µg/mL, the “Retest MIC after 10 Antibiotic-free Subcultures” value ([1]; strain 3665 Macrolide-R [mef(A)], clone selected with CLR) was 0.03 µg/mL and the “Retest MIC after 10 Antibiotic-free Subcultures” value ([1]; strain 3665 Macrolide-R [mef(A)], clone selected with TEL) was 0.03 µg/mL. The “Retest MIC after 10 Antibiotic-free Subcultures” value ([1]; strain 7127 Macrolide-S [S20N in L4, A105V in L22], clone selected with AZI) was 0.06 µg/mL, the “Retest MIC after 10 Antibiotic-free Subcultures” value ([1]; strain 7127 Macrolide-S [S20N in L4, A105V in L22], clone selected with CEM-101) was 0.03 µg/mL and the “Retest MIC after 10 Antibiotic-free Subcultures” value ([1]; strain 7127 Macrolide-S [S20N in L4, A105V in L22], clone selected with CLN) was 0.25 µg/mL. The “Retest MIC after 10 Antibiotic-free Subcultures” value ([1]; strain 7127 Macrolide-S [S20N in L4, A105V in L22], clone selected with CLR) was 1 µg/mL, the “Retest MIC after 10 Antibiotic-free Subcultures” value ([1]; strain 7127 Macrolide-S [S20N in L4, A105V in L22], clone selected with TEL) was 0.03 µg/mL and the “MIC Range” value [2] was “≦0.008-0.063 μg/mL”. It also gave an MIC50 ([2]; Mycoplasmopsis fermentans) of 0.016 µg/mL (≈ 0.0376 µM), an MIC90 ([2]; Mycoplasmopsis fermentans) of 0.031 µg/mL (≈ 0.0729 µM) and a nonsusceptibility [3] of 83.3%. For the same compound, the MIC90 ([3]; Streptococcus pneumoniae) was greater than 16 µg/mL, the “MIC Range” value [4] was “≦0.008-0.031 μg/mL” and the MIC50 ([4]; Metamycoplasma hominis, read-out: MIC50) was no more than 0.008 µg/mL. The MIC90 ([4]; Metamycoplasma hominis, read-out: MIC90) was 0.016 µg/mL (≈ 0.0376 µM), the “single step mutation frequency” value ([5]; strain 1077 Macrolide-S, 2 × MIC) was <3.8 × 10^−10 and the “single step mutation frequency” value ([5]; strain 1077 Macrolide-S, 4 × MIC) was <3.8 × 10^−10. For the same compound, the “single step mutation frequency” value ([5]; strain 1077 Macrolide-S, 8 × MIC) was <3.8 × 10^−10, the “single step mutation frequency” value ([5]; strain 1635 Macrolide-R [erm(A)], 2 × MIC) was 7.3 × 10^−7 and the “single step mutation frequency” value ([5]; strain 1635 Macrolide-R [erm(A)], 4 × MIC) was 5.5 × 10^−7. For the same compound, the “single step mutation frequency” value ([5]; strain 1635 Macrolide-R [erm(A)], 8 × MIC) was 5.6 × 10^−7, the “single step mutation frequency” value ([5]; strain 2686 Macrolide-R [L4 mutation], 2 × MIC) was <1.2 × 10^−9 and the “single step mutation frequency” value ([5]; strain 2686 Macrolide-R [L4 mutation], 4 × MIC) was <1.2 × 10^−9. For the same compound, the “single step mutation frequency” value ([5]; strain 2686 Macrolide-R [L4 mutation], 8 × MIC) was <1.2 × 10^−9, the “single step mutation frequency” value ([5]; strain 3009 Macrolide-R [23S rRNA mutation], 2 × MIC) was 1.7 × 10^−4 and the “single step mutation frequency” value ([5]; strain 3009 Macrolide-R [23S rRNA mutation], 4 × MIC) was 7.3 × 10^−9. The “single step mutation frequency” value ([5]; strain 3009 Macrolide-R [23S rRNA mutation], 8 × MIC) was <1.2 × 10^−10, the “single step mutation frequency” value ([5]; strain 3665 Macrolide-R [mef(A)], 2 × MIC) was <2.4 × 10^−10 and the “single step mutation frequency” value ([5]; strain 3665 Macrolide-R [mef(A)], 4 × MIC) was <2.4 × 10^−10. The “single step mutation frequency” value ([5]; strain 3665 Macrolide-R [mef(A)], 8 × MIC) was <2.4 × 10^−10, the “single step mutation frequency” value ([5]; strain 7127 Macrolide-S [S20N in L4, A105V in L22], 2 × MIC) was <2.9 × 10^−8 and the “single step mutation frequency” value ([5]; strain 7127 Macrolide-S [S20N in L4, A105V in L22], 4 × MIC) was <2.9 × 10^−8. The “single step mutation frequency” value ([5]; strain 7127 Macrolide-S [S20N in L4, A105V in L22], 8 × MIC) was <2.9 × 10^−8, the “single step mutation frequency” value ([6]; strain 237 Macrolide-R [L4 mutation], 2 × MIC) was <1.0 × 10^−10 and the “single step mutation frequency” value ([6]; strain 237 Macrolide-R [L4 mutation], 4 × MIC) was <1.0 × 10^−10. For the same compound, the “single step mutation frequency” value ([6]; strain 237 Macrolide-R [L4 mutation], 8 × MIC) was <1.0 × 10^−10, the “single step mutation frequency” value ([6]; strain 2011 Macrolide-R [mef(A)], 2 × MIC) was <1.0 × 10^−10 and the “single step mutation frequency” value ([6]; strain 2011 Macrolide-R [mef(A)], 4 × MIC) was <1.0 × 10^−10. For the same compound, the “single step mutation frequency” value ([6]; strain 2011 Macrolide-R [mef(A)], 8 × MIC) was <1.0 × 10^−10, the “single step mutation frequency” value ([6]; strain 2094 Macrolide-R [erm(A)], 2 × MIC) was 2.1 × 10^−7 and the “single step mutation frequency” value ([6]; strain 2094 Macrolide-R [erm(A)], 4 × MIC) was 1.3 × 10^−7. The “single step mutation frequency” value ([6]; strain 2094 Macrolide-R [erm(A)], 8 × MIC) was 1.1 × 10^−7, the “single step mutation frequency” value ([6]; strain 2132 Macrolide-S, 2 × MIC) was <7.7 × 10^−11 and the “single step mutation frequency” value ([6]; strain 2132 Macrolide-S, 4 × MIC) was <7.7 × 10^−11. The “single step mutation frequency” value ([6]; strain 2132 Macrolide-S, 8 × MIC) was <7.7 × 10^−11, the MIC50 ([7]; pneumococci, L4 mutations (27)) was 0.06 µg/mL (≈ 0.141 µM) and the MIC90 ([7]; pneumococci, L4 mutations (27)) was 0.125 µg/mL (≈ 0.294 µM). The MIC ([7]; read-out: MIC range, pneumococci, L4 mutations (27)) was 0.03 to 0.125 µg/mL (≈ 0.0706 to 0.294 µM), the MIC50 [8] was no more than 0.12 µg/mL and the MIC90 [9] was 2 µg/mL (≈ 4.71 µM).
